Measured values from patent publication US11450409B2, “Determination of NFkB pathway activity using unique combination of target genes” (InnoSIGN B.V., priority 2015, dated 2022).

What was measured:
[1] = system: NFkB cellular signaling pathway; experiment: NFkB pathway activity prediction, Bayesian network model (evidence curated list), THP-1 monocytic cells; format: cell-based, human; conditions: THP-1 cells treated with CoQ10 and stimulated with LPS (group 3)
From the text: (§1) Herein, an exemplary Bayesian network model as shown in FIG. 2 was first used to model the transcriptional program of the NFkB cellular signaling pathway in a simple manner. The model consists of three types of nodes: (a) a transcription factor (TF) element (with states “absent” and “present”) in a first layer 1; (b) target genes TG1, TG2, TGn (with states “down” and “up”) in a second layer 2, and; (c) measurement nodes linked to the expression levels of the target genes in a third layer 3. These can be microarray probesets PS1,1, PS1,2, PS1,3, PS2,1, PSn,1, PSn,m (with states “low” and “high”), as preferably used herein, but could also be other gene expression measurements such as RNAseq or RT-qPCR.
A suitable implementation of the mathematical model, herein, the exemplary Bayesian network model, is based on microarray data. The model describes (i) how the expression levels of the target genes depend on the activation of the TF element, and (ii) how probeset intensities, in turn, depend on the expression levels of the respective target genes. For the latter, probeset intensities may be taken from fRMA pre-processed Affymetrix HG-U133Plus2.0 microarrays, which are widely available from the Gene Expression Omnibus (GEO, www.ncbi.nlm.nih.gov/geo) and ArrayExpress (www.ebi.ac.uk/arrayexpress). […]

[2] = system: NFkB cellular signaling pathway; conditions: reported in literature (Schmelzer and Döring 2010), human THP-1 monocytes; cited from earlier work
[3] = system: NFkB cellular signaling pathway; experiment: NFkB pathway activity prediction, Bayesian network model (evidence curated list, 19, 13 and 7 target genes shortlists), NHBE samples from E-MTAB-1312 stimulated with TNFα; format: cell-based, human; conditions: NHBE cells
From the text: as §1
A suitable implementation of the mathematical model, herein, the exemplary Bayesian network model, is based on microarray data. The model describes (i) how the expression levels of the target genes depend on the activation of the TF element, and (ii) how probeset intensities, in turn, depend on the expression levels of the respective target genes. For the latter, probeset intensities may be taken from fRMA pre-processed Affymetrix HG-U133Plus2.0 microarrays, which are widely available from the Gene Expression Omnibus (GEO, www.ncbi.nlm.nih.gov/geo) and ArrayExpress (www.ebi.ac.uk/arrayexpress).
Once the exemplary Bayesian network model is built and calibrated (see below), the model can be used on microarray data of a new sample by entering the probeset measurements as observations in the third layer 3, and inferring backwards in the model what the probability must have been for the TF element to be “present”. Here, “present” is considered to be the phenomenon that the TF element is bound to the DNA and is controlling transcription of the cellular signaling pathway's target genes, and “absent” the case that the TF element is not controlling transcription. […]

[4] = system: NFkB cellular signaling pathway; experiment: NFkB pathway activity prediction, Bayesian network model (broad literature list), NHBE samples from E-MTAB-1312 stimulated with TNFα; format: cell-based, human; conditions: NHBE cells
From the text: The list of target genes of the NFkB cellular signaling pathway constructed based on literature evidence following the procedure as described herein (“evidence curated list of target genes”, see Table 3) is compared here with a “broad literature list” of putative target genes of the NFkB cellular signaling pathway constructed not following above mentioned procedure. The alternative list is a compilation of genes attributed to responding to activity of the NFkB cellular signaling pathway provided within Thomson-Reuters's Metacore (last accessed Sep. 6, 2013). This database was queried for genes that are transcriptionally regulated directly downstream of the family of NFkB proteins, i.e., NFKB1 or p50/p105, NFKB2 or p52/p100, RELA or p65, REL, and RELB. […] A further selection was made based on the number of publication references supporting the attributed transcriptional regulation of the respective gene by the NFkB family. Genes that had ten or more references were selected for the broad literature list. In other words, no manual curation of the references and no calculation of an evidence score based on the experimental evidence was performed. […] The expression of the genes was measured by 56 probesets on the Affymetrix HG-U133Plus2.0 microarray platform which were selected using the Bioconductor plugin of R and one manually added probeset for DEFB4A, see Table 7. […]

[5] = system: NFkB cellular signaling pathway; experiment: NFkB pathway activity prediction, linear model (evidence curated list), NHBE samples from E-MTAB-1312 stimulated with TNFα; format: cell-based, human; conditions: NHBE cells
From the text: Further to the exemplary Bayesian network model described above, an exemplary linear model was used to model the transcriptional program of the NFkB cellular signaling pathway in a simple manner. The structure of the model corresponded to the one shown in FIG. 3 of the published international patent application WO 2014/102668 A2 (“Assessment of cellular signaling pathway activity using linear combination(s) of target gene expressions”). More specifically, the exemplary linear model consisted of a TF node, a layer of target gene expression and a layer of mRNA expression levels and made use of continuous expression data, all target genes from the evidence curated list of target genes (see Table 3) with all probesets included and without the use of a pseudocount.
In the diagram, the vertical axis indicates the activity score, wherein positive values correspond to an active NFkB cellular signaling pathway and negative values correspond to a passive NFkB cellular signaling pathway. NHBE cell lines were unstimulated or stimulated with different TNFα concentrations for different timings. All unstimulated healthy cells (groups 1 to 4) are correctly predicted to have a passive NFkB cellular signaling pathway. […]

[6] = 0.5 h stimulation, all TNFα concentrations (groups 5, 9, 13)

Molecule | predicted NFkB cellular signaling pathway activity [1] | effect on NFkB cellular signaling pathway activity [2] | predicted NFkB cellular signaling pathway activity ([3]; 2 and 4 hour stimulation, all concentrations tested) | predicted NFkB cellular signaling pathway activity ([3]; 0.5 h stimulation, low/medium/high TNFα (groups 5, 9, 13)) | predicted NFkB cellular signaling pathway activity ([3]; 24 hours stimulation (groups 8, 12, 16)) | predicted NFkB cellular signaling pathway activity [4, 6] | predicted NFkB cellular signaling pathway activity ([4]; stimulation times of 2-24 hours) | predicted NFkB cellular signaling pathway activity score [5, 6] | predicted NFkB cellular signaling pathway activity score ([5]; stimulation times of 2 to 24 hours)
COC1=C(OC)C(=O)C(C/C=C(\C)CC/C=C(\C)CC/C=C(\C)CC/C=C(\C)CC/C=C(\C)CC/C=C(\C)CC/C=C(\C)CC/C=C(\C)CC/C=C(\C)CCC=C(C)C)=C(C)C1=O [CoQ10, Coenzyme Q10] | high predicted NFkB cellular signaling pathway activities | limited |  |  |  |  |  |  | 
TNFα |  |  | full-blown NFkB cellular signaling pathway activity | too short for the NFkB cellular signaling pathway to become active | appears to lower the NFkB cellular signaling pathway activity | too short for the NFkB cellular signaling pathway to become active | resulted in an active NFkB cellular signaling pathway | too short for the NFkB cellular signaling pathway to become active | resulted in an active NFkB cellular signaling pathway
